Assay [1] deals with T1, proton pump (H+/K+-ATPase) (Sus scrofa, UniProt P19156).
T1 construct: Gastric vesicles isolated from pig stomach were prepared according to the document; from tissue; host or cells: pig stomach (gastric vesicles)
The experiment in a line: Inhibitory activity on proton pump (H+/K+-ATPase), malachite green assay. To be noted: pig gastric vesicles, pH 6.5. In kind it is biochemical. The method, then:
The proton pump (H+/K+-ATPase) inhibitory activity of the prepared compound was measured as follows. Gastric vesicles isolated from pig stomach were prepared according to the document (see Methods Mol Biol. 2016; 1377:19-27). The protein contents of the gastric vesicles were quantified with a Bicinchoninic Acid (BCA) kit (Sigma Aldrich, BCA1). To each well of a 96-well plate, 70 μl of 50 mM Tris-HEPES buffer (pH 6.5) containing 125 ng of vesicles, DMSO or a substance for each concentration (final DMSO concentration of 1%), 5 mM MgCl2, and 10 mM KCl was added and pre-incubated at 37° C. for 30 minutes. Then, 10 μl of 2 mM ATP was added to each well, followed by enzymatic reaction at 37° C. for 40 minutes. The reaction was stopped by adding 20 μl of malachite green reagent (Sigma Aldrich, MAK307) and the resulting mixture was allowed to stand at room temperature for 30 minutes. By measuring the absorbance at 620 nm using a Microplate Reader (Biotek, Synergy H4), an amount of inorganic phosphorus released from ATP degradation was measured and the enzyme activity was measured. The absorbance of the enzyme-reacted sample without adding KCl was measured, and the measurement value was subtracted from all the above measurements. Assuming that the group treated with 1% DMSO (DMSO control group) was 100% H^+/K^+-ATPase enzyme activity, and that the group without KCl (KCl control group) was 0% H^+/K^+-ATPase enzyme activity, % inhibition was calculated as in the following Equation 1:
% inhibition=[1−(ODtreatment group−ODKCl control group)/(ODDMSO control group−ODKCl control group))]*100. [Equation 1]
IC50 was obtained by nonlinear regression analysis of GraphPad Prism7 program using % inhibition values for each concentration, and results thereof are shown in Table 2 below.

In assay [2] the test system is basal gastric acid secretion. The experiment in a line: Inhibition of basal gastric acid secretion in pylorus-ligated rat (Shay's rat model). In kind it is in vivo. To be noted: SD rats, 10 mg/kg oral 1 h before pylorus ligation, 5 hours after ligation. The procedure: The inhibitory efficacy of the prepared compound on basal gastric acid secretion was measured by employing the Shay's rat model [Shay H, et al., Gastroenterology, 1945, 5, 43˜61].
Male Sprague Dawley (SD) rats were divided into 8 rats per group, and fasted with only water supply for 24 hours. Then, one hour before pylorus ligation, the control group was orally administered with 0.5% methylcellulose solution, and the other groups were orally administered with the Example compound at a dose of 10 mg/10 mL/kg suspended in 0.5% methylcellulose solution.
After 5 hours of ligation, the rats were sacrificed under Zoletil and Xylazine anesthesia, and the gastric contents were enucleated by incision of the abdominal cavity. The obtained contents were centrifuged at 3,000 rpm for 10 minutes to separate only the supernatant, and gastric juice was collected. 1 mL of the collected gastric juice was taken into a beaker and the pH was measured using an electrode pH meter. To 1 mL of gastric juice, 0.03 mL each of 0.5% dimethylaminoazobenzene alcohol solution and 1% phenolphthalein alcohol solution was added to make red color, and then 0.1N NaOH solution was added, wherein the volume until the rose tint appeared was determined as the total acidity, and the total acid output was obtained by multiplying the acidity of gastric juice by the amount of gastric juice. The % inhibitory activity of the Example compound was calculated according to the following Equation 2, and results thereof are shown in Table 6 below.
% inhibitory activity of Example compound=[(total gastric acid secretion in Control group−total gastric acid secretion in group treated with Example compound)/total gastric acid secretion in Control group]×100 [Equation 2]

T1 sequence (P19156 2-1034 limits assumed): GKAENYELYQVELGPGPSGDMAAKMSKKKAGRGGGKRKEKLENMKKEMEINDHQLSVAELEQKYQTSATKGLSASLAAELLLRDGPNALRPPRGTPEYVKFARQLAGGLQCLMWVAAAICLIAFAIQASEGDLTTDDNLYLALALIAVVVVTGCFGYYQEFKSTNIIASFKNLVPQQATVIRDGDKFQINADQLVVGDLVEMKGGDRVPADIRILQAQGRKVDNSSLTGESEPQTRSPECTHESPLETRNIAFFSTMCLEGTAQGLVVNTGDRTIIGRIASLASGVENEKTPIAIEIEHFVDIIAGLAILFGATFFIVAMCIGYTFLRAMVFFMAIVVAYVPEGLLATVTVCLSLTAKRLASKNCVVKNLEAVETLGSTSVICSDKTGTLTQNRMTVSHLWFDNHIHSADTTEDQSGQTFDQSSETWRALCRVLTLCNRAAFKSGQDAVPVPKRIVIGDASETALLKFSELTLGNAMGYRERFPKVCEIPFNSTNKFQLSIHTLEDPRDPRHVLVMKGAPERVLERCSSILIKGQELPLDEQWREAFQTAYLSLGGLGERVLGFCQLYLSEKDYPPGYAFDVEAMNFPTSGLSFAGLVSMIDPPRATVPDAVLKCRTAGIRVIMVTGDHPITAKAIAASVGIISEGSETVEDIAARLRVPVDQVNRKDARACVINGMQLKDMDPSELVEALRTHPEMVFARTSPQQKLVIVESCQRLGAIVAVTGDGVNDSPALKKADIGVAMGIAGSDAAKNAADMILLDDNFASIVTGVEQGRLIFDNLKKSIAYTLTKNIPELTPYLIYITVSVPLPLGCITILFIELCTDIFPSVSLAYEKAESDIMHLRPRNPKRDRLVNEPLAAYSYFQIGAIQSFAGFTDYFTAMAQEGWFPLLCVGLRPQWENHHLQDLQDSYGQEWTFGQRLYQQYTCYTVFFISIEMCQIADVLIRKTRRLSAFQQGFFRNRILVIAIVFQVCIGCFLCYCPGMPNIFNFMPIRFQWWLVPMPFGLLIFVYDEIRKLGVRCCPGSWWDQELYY
T1 sequence (P18434 whole entry partner): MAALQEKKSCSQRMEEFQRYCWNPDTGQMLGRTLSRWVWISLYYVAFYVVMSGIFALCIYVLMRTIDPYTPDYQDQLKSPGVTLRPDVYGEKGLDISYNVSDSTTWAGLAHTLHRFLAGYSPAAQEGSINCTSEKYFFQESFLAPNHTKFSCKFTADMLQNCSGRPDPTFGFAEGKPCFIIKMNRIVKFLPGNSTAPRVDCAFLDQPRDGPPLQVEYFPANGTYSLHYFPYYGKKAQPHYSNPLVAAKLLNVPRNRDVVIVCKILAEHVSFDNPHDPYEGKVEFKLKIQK

The IC50 is the concentration at which inhibition is half-maximal. Turning to `CNCc1cn(S(=O)(=O)c2ccc(C)nc2)c(-c2ccccc2F)c1OC` [Example 4, 1-(5-(2-Fluorophenyl)-4-methoxy-1-((6-methylpyridin-3-yl)sulfonyl)-1H-pyrrol-3-yl)-N-methylmethanamine], the IC50 in assay [1] was at most 300 nM.

In the case of `CNCc1cn(S(=O)(=O)c2ccc(OC)nc2)c(-c2ccc(F)cc2F)c1OC` [Example 2, 1-(5-(2,4-Difluorophenyl)-4-methoxy-1-((6-methoxypyridin-3-yl)sulfonyl)-1H-pyrrol-3-yl)-N-methylmethanamine], in assay [2], the “Inhibitory Activity (%) on total gastric acid secretion” value was “+++ (90% or more: +++)” and the “pH of gastric juice” value stood at 8.04 ± 0.16. In addition, in assay [1], the IC50 is at most 300 nM.

The values are drawn from patent US20230192650A1, “NOVEL ACID SECRETION INHIBITOR AND USE THEREOF” (Ildong Pharmaceutical Co., Ltd., priority 2020, published 2023).
